Tested on: HDAC (Hela Nuclear Extract)
Assay: In vitro HDAC fluorescent activity assay (Biomol kit, Fluor de Lys substrate) with Hela Nuclear Extract
Type: biochemical
Conditions: compounds reduced with 30 mM DTT prior to analysis; diluted Hela Nuclear Extract; 37° C. for 1 hour; mean of duplicate samples
Procedure: In vitro HDAC assays were performed using a HDAC fluorescent activity assay kit (Biomol, UK) according to the manufacturer's instructions. Compounds were reduced prior to analysis; 1 mM compound was reduced with 30 mM DTT in DMSO overnight at room temperature, protected from light. Reactions were then set up in a 96-well plate. For each reaction 10 μl compound (5× required concentration in assay buffer) was mixed with […] diluted Hela Nuclear Extract (30-fold in assay buffer). Serial dilutions were set up for each compound. Reactions containing Hela extract only and assay buffer only were also set up. 25 μl diluted Fluor de Lys™ substrate (100-fold in assay buffer) was added to each reaction, which were then incubated at 37° C. for 1 hour. The reaction was stopped by addition of 50 μl Fluor de Lys™ Developer (20-fold dilution in assay buffer, plus TSA diluted 100-fold). The reactions were then incubated at room temperature for 10 minutes before fluorescence was measured using a CytoFluor II Fluorescence Multiwell Plate Reader and CytoFluor II software with filters set at […] for excitation and […] for emission. Inhibition of in vitro HDAC activity was determined for mean values of duplicate samples as percentages relative to HeLa extract only reactions. IC50 values were calculated using GraphPad Prism software.

IC50 [nM]	SMILES
47 ± 9.9	CC(C)[C@H]1NC(=O)[C@@H](Cc2ccccc2)NC(=O)[C@@H](C)NC(=O)C[C@@H](/C=C/CCS)OC(=O)CNC1=O [Compound 16, (6R,9R,12R,16S)-9-Benzyl-6-isopropyl-16-((E)-4-mercapto-but-1-enyl)-12-methyl-1-oxa-4,7,10,13-tetraaza-cyclohexadecane-2,5,8,11,14-pentaone]
126 ± 5.3	CC(=O)SCC/C=C/[C@@H]1CC(=O)N[C@H](C)C(=O)N[C@H](Cc2ccccc2)C(=O)N[C@H](C(C)C)C(=O)NCC(=O)O1 [Compound 17, Thioacetic acid S-[(E)-4-((6R,9R,12R,16S)-9-benzyl-6-isopropyl-12-methyl-2,5,8,11,14-pentaoxo-1-oxa-4,7,10,13-tetraaza-cyclohexadec-16-yl)-but-3-enyl]ester]
